Where “and” joins values, the source holds several entries; their conditions need not be identical. Equal entries are not always repeated.
Key:
[1] = molecular target: T1, AChE (Type VI-S; from Electrophorus electricus) (Electrophorus electricus, UniProt O42275); assay: biochemical; details: for IC50 / remaining activity at 10 µM / Residual activity at 10 µM (%) AChE: 15 min preincubation; for IC50: read-out: IC50 (µM) AChE; for remaining activity at 10 µM: read-out: Residual activity at 10 µM (%) AChE, inhibitor 10 µM; for SI = IC50 of AChE/ IC50 of BChE: selectivity index; for Ki: Lineweaver–Burk and secondary plots, read-out: Ki value for AChE inhibition; for Inhibition type, AChE: Lineweaver–Burk plots; for Residual activity at 10 µM (%) AChE: inhibitor 10 µM
T1 construct: AChE (Type VI-S; from Electrophorus electricus); purchased Sigma-Aldrich Type VI-S (catalogue number not given)
Method: (§1) AChE assays were performed as described by Ellman et al.[41] with slight modifications. […] DTNB was used for color development, caused by reaction between it and thiocholine (a product of AChE). For inhibitory assays, compounds were preincubated with AChE for 15 min prior to ATCI and DTNB addition. BChE activity was assayed using the same method, but BTCI was used instead of ATCI.
(§2) Inhibitions of the activities of AChE, BChE, MAO-A, and MAO-B by the 15 compounds were investigated at an inhibitor concentration of 10 µM. IC50 values were also determined. […] The inhibition types and Ki values were determined using Lineweaver–Burk Plots and secondary plots.

BChE (from equine serum) = molecular target: T2, BChE (from equine serum) (Equus caballus, UniProt P81908); assay: biochemical; details: for IC50: 15 min preincubation, read-out: IC50 (µM) BChE
T2 construct: BChE (from equine serum); purchased Sigma-Aldrich; host or cells: equine serum
Method: as §1, §2

recombinant human MAO-B = molecular target: T3, recombinant human MAO-B (Homo sapiens, UniProt P27338); assay: MAO-B inhibition assay (benzylamine); type: biochemical; details: inhibitor 10 µM; read-out: Residual activity at 10 µM (%) MAO-B
T3 construct: purchased Sigma-Aldrich
T3 sequence (P27338 1-520): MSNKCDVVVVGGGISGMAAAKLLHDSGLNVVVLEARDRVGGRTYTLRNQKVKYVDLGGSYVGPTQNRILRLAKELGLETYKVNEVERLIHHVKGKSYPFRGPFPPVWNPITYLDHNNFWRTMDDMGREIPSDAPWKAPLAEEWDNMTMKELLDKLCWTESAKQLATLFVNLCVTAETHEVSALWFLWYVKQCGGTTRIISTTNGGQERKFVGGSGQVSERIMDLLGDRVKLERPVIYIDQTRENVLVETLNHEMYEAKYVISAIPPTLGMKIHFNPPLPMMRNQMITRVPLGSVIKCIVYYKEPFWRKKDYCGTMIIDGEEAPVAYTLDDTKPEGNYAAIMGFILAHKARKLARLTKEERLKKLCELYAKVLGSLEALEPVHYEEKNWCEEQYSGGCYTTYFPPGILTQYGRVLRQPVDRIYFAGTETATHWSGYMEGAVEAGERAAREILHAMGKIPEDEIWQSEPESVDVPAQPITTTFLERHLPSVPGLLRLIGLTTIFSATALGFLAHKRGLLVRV
Method: as §1, §2

[2] = design: method as in PMID 31704444; details: up to 10 µg/µL (i.e., ~ 25 mM); cited from earlier work
BChE = molecular target: T4, BChE (Equus caballus, UniProt P81908); assay: Reversibility of BChE inhibition by dialysis; type: biochemical, equine
T4 construct: BChE (from equine serum); purchased Sigma-Aldrich; host or cells: equine serum
Method: (§3) Inhibitor reversibilities were examined using the dialysis method, using with AChE or BChE, rather than MAO enzymes. […] Dialysis was conducted for 6 h with stirring and two buffer changes. Residual activities before (AU) and after (AD) dialysis were compared to those of non-treated controls, and reversibility types were determined by comparing AD and AU values.
(§4) For recovery experiments, preincubated enzyme mixtures were dialyzed as described in the text.

[3] = tested on: LPS-stimulated RAW264.7 cells; design: method as in PMID 31704444; details: at 10 µg/µL; cited from earlier work
recombinant human MAO-A = molecular target: T5, recombinant human MAO-A (Homo sapiens, UniProt P21397); assay: MAO-A inhibition assay (kynuramine); type: biochemical; details: inhibitor 10 µM; read-out: Residual activity at 10 µM (%) MAO-A
T5 construct: purchased Sigma-Aldrich
T5 sequence (P21397 1-527): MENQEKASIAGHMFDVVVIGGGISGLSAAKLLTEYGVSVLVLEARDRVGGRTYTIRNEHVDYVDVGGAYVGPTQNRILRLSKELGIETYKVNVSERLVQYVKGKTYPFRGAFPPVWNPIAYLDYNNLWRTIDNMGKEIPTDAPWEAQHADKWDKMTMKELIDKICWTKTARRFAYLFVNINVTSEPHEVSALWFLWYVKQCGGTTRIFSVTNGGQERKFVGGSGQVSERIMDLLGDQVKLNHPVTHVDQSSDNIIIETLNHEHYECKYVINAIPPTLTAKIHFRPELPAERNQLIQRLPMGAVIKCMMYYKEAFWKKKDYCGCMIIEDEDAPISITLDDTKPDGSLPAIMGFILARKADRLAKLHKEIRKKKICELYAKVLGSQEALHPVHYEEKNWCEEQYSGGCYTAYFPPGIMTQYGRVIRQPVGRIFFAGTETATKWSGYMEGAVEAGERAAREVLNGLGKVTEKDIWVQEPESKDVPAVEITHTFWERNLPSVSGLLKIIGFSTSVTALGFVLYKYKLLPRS
Method: as §1, §2

AChE = molecular target: T6, AChE (Electrophorus electricus, UniProt O42275); assay: Reversibility of AChE inhibition by dialysis; type: biochemical; details: for Reversibility of AChE inhibition: dialysis method; for Residual AChE activity before dialysis (AU) / Residual AChE activity after dialysis (AD): inhibitor ~ 2 × IC50: PJ13, 20 µM, PJ15, 20 µM, tacrine, 0.54 µM; for Residual AChE activity before dialysis (AU): 30 min preincubation; for Residual AChE activity after dialysis (AD): dialysis 6 h
T6 construct: AChE (Type VI-S; from Electrophorus electricus); purchased Sigma-Aldrich Type VI-S (catalogue number not given)
Method: as §3, §4

T1 sequence (O42275 24-633): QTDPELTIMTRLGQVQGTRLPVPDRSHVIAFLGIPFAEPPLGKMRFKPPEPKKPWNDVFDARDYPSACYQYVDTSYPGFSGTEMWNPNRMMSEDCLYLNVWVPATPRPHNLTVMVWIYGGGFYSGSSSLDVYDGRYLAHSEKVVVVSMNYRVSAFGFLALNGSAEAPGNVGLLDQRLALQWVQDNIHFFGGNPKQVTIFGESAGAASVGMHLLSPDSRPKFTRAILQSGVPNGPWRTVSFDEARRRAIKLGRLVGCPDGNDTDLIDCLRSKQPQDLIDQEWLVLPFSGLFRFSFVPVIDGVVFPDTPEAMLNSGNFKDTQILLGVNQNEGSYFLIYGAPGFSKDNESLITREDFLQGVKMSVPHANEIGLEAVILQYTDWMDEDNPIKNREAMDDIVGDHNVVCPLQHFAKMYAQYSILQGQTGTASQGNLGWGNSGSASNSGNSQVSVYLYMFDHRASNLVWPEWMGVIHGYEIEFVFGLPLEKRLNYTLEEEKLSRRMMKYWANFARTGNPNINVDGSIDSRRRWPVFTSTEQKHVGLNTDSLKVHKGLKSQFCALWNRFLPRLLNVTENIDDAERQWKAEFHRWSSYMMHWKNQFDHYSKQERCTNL
T6 sequence (O42275 24-633): as above
T2 sequence (P81908 whole entry): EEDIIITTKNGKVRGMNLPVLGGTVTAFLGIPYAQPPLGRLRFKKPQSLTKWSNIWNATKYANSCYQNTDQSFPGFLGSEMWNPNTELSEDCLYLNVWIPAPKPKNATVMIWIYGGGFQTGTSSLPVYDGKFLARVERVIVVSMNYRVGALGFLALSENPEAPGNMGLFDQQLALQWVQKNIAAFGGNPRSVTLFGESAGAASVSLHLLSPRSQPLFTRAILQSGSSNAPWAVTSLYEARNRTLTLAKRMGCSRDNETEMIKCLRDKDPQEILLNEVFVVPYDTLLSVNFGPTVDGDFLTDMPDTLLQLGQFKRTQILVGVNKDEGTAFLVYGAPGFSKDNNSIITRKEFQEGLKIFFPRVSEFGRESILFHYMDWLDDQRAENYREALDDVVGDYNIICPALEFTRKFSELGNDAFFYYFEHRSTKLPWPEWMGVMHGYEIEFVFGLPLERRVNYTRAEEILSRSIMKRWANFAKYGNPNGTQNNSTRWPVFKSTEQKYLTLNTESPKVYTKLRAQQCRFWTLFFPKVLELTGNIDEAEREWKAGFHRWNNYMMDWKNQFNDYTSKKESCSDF
T4 sequence (P81908 whole entry): as above

| Compound | IC50 [1] | remaining activity at 10 µM [1] | SI = IC50 of AChE/ IC50 of BChE [1] | IC50 (BChE (from equine serum)) | Ki (BChE (from equine serum); Lineweaver–Burk and secondary plots, read-out: Ki value for BChE inhibition) | Inhibition type, BChE (BChE (from equine serum); Lineweaver–Burk plots) | remaining activity at 10 µM (recombinant human MAO-B) | Toxicity [2] | Reversibility of BChE inhibition (BChE; dialysis method) | Residual BChE activity before dialysis (AU) (BChE; inhibitor ~ 2 × IC50: PJ5, 14 µM, tacrine, 0.54 µM, 30 min preincubation) | Residual BChE activity after dialysis (AD) (BChE; inhibitor ~ 2 × IC50: PJ5, 14 µM, tacrine, 0.54 µM, dialysis 6 h) | Anti-inflammatory effects [3] | remaining activity at 10 µM (recombinant human MAO-A) | Ki [1] | Inhibition type, AChE [1] | Residual activity at 10 µM (%) AChE [1] | Reversibility of AChE inhibition (AChE) | Residual AChE activity before dialysis (AU) (AChE) | Residual AChE activity after dialysis (AD) (AChE) |
| --- | --- | --- | --- | --- | --- | --- | --- | --- | --- | --- | --- | --- | --- | --- | --- | --- | --- | --- | --- |
| C/C=C(/C)C(=O)O[C@@H]1c2c(ccc3ccc(=O)oc23)OC(C)(C)[C@@H]1OC(=O)C=C(C)C [PJ5, senecioyl-4′-angeloyl-khellactone] | > 40 µM | 96 ± 2.83% | > 5.54 | 7.22 µM and 7.2 µM | 4.16 µM | mixed-type | 96 ± 0.52% | non-toxic | reversible | 41.2% | 86.8% | potent | 84.7 ± 9.3% |  |  |  |  |  |  |
| CCC(C)C(=O)O[C@@H]1c2c(ccc3ccc(=O)oc23)OC(C)(C)[C@@H]1OC(=O)CC(C)C (some centres unmarked) [PJ15, 3′-isovaleryl-4′-(2-methylbutyroyl)khellactone] | 10 ± 0.48 µM | < 50% | < 0.25 | > 40 µM |  |  | 73.3 ± 7.21% | non-toxic |  |  |  | potent | 76.9 ± 4.2% | 10.4 µM | mixed-type | 50.0 ± 2.82% | reversible | 32.8% | 68.7% |
| C/C=C(/C)C(=O)O[C@@H]1[C@H](OC(=O)C(C)CC)c2c(ccc3ccc(=O)oc23)OC1(C)C (some centres unmarked) [PJ13, 3′-angeloyl-4′-(2-methylbutyryl)khellactone] | 9.28 ± 0.094 µM | < 50% | < 0.23 | > 40 µM |  |  | 64.6 ± 8.82% | non-toxic |  |  |  | potent | 88.5 ± 5.41% | 5.98 µM | mixed-type | 48.0 ± 9.40% | reversible | 34.7% | 72.3% |
